The source made the active and inactive calls.
Key:
Format in all cases: functional
[1] = biological target: Macrophage colony-stimulating factor 1 receptor (Homo sapiens, UniProt P07333);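 note: value comes from the Navigating the Kinome screening panel, CSF1R member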
[2] = biological target: Maternal embryonic leucine zipper kinase (Homo sapiens, UniProt Q14680)
[3] = biological target: Serine/threonine-protein kinase Chk1 (Homo sapiens, UniProt O14757);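 note: measured as one member of a kinome-wide kinase profiling panel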
[4] = biological target: Protein kinase C delta type (Homo sapiens, UniProt Q05655)
Protein kinase C delta type, sequence (Q05655 whole entry): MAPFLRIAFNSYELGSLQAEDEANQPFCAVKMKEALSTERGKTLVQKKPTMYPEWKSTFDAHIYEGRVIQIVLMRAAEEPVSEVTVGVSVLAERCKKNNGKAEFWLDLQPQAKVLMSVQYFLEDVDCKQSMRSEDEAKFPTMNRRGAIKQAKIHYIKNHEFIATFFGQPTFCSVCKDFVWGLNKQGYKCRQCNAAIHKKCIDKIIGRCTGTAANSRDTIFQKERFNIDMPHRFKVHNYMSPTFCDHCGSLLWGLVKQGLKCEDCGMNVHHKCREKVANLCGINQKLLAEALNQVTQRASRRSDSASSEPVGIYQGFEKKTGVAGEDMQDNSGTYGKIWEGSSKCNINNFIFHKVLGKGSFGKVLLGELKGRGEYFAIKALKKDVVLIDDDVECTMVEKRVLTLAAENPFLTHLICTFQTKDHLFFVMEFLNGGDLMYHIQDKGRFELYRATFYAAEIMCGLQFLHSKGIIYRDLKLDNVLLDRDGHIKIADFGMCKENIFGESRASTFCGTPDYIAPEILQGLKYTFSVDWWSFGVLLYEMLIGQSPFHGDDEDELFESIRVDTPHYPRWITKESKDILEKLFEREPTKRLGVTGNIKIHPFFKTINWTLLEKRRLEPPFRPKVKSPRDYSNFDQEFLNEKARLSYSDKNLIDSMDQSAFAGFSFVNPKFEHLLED

[5] = biological target: Receptor tyrosine-protein kinase erbB-4 (Homo sapiens, UniProt Q15303);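 note: ERBB4 member of a kinome-wide kinase profiling panel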
Receptor tyrosine-protein kinase erbB-4, sequence (Q15303 whole entry): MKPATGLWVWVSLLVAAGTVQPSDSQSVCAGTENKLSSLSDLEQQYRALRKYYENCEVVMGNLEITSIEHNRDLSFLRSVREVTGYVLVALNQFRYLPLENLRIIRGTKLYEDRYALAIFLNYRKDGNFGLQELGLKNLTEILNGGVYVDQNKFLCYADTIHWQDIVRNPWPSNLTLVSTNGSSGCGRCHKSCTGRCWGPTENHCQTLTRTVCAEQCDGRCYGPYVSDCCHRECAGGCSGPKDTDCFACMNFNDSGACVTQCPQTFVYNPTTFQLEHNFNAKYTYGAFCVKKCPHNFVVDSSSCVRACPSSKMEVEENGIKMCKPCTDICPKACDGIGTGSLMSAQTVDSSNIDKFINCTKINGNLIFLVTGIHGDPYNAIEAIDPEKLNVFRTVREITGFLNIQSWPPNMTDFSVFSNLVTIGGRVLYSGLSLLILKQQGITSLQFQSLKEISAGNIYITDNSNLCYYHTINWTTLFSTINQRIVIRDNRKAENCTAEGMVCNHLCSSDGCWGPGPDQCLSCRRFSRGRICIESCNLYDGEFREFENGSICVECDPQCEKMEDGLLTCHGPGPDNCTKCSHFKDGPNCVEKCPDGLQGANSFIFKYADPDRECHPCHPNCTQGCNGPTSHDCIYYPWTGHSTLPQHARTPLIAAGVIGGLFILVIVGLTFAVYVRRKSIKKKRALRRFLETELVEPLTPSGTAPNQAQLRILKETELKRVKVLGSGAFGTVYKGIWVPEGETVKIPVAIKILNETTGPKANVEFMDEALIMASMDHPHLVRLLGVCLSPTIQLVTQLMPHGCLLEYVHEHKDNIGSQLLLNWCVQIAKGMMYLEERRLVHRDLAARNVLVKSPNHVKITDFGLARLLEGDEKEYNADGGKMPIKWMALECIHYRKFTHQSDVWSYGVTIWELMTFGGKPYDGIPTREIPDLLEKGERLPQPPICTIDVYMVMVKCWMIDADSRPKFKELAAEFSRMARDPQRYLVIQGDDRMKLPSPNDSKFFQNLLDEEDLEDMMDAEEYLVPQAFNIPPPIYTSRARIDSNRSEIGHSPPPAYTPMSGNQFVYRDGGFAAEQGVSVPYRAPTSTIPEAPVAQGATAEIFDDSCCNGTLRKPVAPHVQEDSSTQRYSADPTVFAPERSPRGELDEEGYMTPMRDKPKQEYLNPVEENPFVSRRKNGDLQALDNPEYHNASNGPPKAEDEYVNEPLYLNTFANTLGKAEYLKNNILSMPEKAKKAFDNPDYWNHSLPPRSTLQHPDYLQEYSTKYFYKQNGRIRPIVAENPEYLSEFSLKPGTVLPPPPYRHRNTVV

[6] = biological target: Serine/threonine-protein kinase D3 (Homo sapiens, UniProt O94806);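 note: determined within a kinase panel screen, with PRKCN as the panel member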
[7] = biological target: Fibroblast growth factor receptor 1 (Homo sapiens, UniProt P11362)
[8] = biological target: Mitogen-activated protein kinase 13 (Homo sapiens, UniProt O15264)
Mitogen-activated protein kinase 13, sequence (O15264 whole entry): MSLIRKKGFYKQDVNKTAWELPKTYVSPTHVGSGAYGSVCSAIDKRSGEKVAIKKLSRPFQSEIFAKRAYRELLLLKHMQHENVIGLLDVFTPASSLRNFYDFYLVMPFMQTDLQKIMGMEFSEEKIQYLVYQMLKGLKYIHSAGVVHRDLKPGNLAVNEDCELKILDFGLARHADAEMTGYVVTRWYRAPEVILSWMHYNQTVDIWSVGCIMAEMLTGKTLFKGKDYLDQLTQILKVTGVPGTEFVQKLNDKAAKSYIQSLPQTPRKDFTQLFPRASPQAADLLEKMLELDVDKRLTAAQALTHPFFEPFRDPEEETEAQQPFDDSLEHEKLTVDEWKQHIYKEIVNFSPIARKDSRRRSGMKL

[9] = biological target: cAMP-dependent protein kinase catalytic subunit alpha (Homo sapiens, UniProt P17612)
[10] = biological target: Serine/threonine-protein kinase Chk2 (Homo sapiens, UniProt O96017);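 note: CHEK2 entry within a kinome-wide screening panel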
Serine/threonine-protein kinase Chk2, sequence (O96017 whole entry): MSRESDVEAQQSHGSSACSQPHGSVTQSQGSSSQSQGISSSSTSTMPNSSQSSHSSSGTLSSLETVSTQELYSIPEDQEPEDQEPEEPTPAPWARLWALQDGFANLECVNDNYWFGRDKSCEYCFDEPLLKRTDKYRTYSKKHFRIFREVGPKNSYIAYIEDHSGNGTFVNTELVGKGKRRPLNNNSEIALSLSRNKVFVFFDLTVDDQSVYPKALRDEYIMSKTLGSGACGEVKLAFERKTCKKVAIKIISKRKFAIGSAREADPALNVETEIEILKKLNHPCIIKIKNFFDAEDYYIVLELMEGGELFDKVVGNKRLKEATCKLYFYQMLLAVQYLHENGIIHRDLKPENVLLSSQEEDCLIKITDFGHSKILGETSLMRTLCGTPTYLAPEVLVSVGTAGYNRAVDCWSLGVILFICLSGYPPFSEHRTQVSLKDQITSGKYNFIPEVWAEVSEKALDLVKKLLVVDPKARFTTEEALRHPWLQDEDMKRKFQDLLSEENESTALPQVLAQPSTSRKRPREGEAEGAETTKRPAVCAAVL

[11] = biological target: Megakaryocyte-associated tyrosine-protein kinase (Homo sapiens, UniProt P42679);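 note: affinity measured as one member of a kinase panel (Navigating the Kinome) against MATK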
[12] = biological target: ALK tyrosine kinase receptor (Homo sapiens, UniProt Q9UM73);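 note: ALK tested as one member of a kinase panel screen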
[13] = biological target: Ribosomal protein S6 kinase alpha-3 (Homo sapiens, UniProt P51812);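 note: measured within a kinome-wide profiling panel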
[14] = biological target: Mitogen-activated protein kinase kinase kinase kinase 2 (Homo sapiens, UniProt Q12851);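 note: measured as one member of a kinome-wide kinase panel, with MAP4K2 as the panel entry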
[15] = biological target: Phosphorylase b kinase gamma catalytic chain, liver/testis isoform (Homo sapiens, UniProt P15735);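 note: PHKG2 measured as one member of a kinome-wide kinase panel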
Phosphorylase b kinase gamma catalytic chain, liver/testis isoform, sequence (P15735 whole entry, canonical isoform): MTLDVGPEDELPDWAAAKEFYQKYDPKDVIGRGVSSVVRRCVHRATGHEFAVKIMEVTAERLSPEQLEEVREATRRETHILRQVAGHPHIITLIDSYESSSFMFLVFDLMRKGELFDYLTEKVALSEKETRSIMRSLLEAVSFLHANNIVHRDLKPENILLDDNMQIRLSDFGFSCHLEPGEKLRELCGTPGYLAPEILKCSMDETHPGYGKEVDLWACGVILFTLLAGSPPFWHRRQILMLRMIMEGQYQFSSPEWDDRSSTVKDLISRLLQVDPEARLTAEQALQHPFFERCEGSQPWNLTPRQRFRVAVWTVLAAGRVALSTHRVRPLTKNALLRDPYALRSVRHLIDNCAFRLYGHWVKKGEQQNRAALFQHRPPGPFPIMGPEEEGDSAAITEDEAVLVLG

[16] = biological target: RAC-alpha serine/threonine-protein kinase (Homo sapiens, UniProt P31749);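 note: AKT1 affinity measured as one member of a kinome-wide kinase profiling panel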
[17] = biological target: Serine/threonine-protein kinase pim-3 (Homo sapiens, UniProt Q86V86);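 note: value obtained as one member of a broad kinase panel profiling effort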
[18] = biological target: Protein kinase C gamma type (Homo sapiens, UniProt P05129)
[19] = biological target: Mitogen-activated protein kinase kinase kinase 20 (Homo sapiens, UniProt Q9NYL2)
[20] = biological target: Tyrosine-protein kinase Fer (Homo sapiens, UniProt P16591);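 note: FER tested as one member of a kinome panel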
[21] = biological target: Cyclin-dependent kinase 2 (Homo sapiens, UniProt P24941);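 note: CDK2 measured as one member of a broad kinome profiling panel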
Protein RecA = biological target: T1, Protein RecA (Mycobacterium tuberculosis, UniProt P9WHJ3); assay: Fluorescence Cell-Free Homogeneous Dose Retest to Identify Inhibitors of RecA-Intein Splicing Activity. [Related pubchem assays (depositor defined):AID2097, AID2223, AID489010, AID492950]
T1 sequence (P9WHJ3 whole entry): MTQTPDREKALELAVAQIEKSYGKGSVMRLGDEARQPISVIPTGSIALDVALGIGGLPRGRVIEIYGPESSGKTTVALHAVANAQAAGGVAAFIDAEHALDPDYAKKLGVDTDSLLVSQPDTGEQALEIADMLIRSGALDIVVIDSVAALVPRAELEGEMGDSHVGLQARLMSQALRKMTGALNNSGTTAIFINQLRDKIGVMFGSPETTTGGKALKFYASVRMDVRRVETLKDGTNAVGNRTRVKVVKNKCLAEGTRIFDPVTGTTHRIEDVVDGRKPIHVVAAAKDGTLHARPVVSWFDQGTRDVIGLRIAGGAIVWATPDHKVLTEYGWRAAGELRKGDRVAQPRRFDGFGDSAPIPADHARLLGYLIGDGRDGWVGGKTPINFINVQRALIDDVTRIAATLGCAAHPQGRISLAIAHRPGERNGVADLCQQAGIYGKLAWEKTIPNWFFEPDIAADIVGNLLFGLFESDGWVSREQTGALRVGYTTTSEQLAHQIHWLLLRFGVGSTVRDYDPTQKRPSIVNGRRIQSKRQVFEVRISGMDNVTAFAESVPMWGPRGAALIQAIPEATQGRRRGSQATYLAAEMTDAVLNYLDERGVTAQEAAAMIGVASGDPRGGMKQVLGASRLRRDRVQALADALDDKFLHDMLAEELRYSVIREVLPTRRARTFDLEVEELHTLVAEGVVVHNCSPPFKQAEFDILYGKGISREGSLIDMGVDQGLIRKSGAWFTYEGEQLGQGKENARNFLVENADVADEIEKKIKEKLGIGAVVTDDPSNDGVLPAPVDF

Maternal embryonic leucine zipper kinase, sequence (Q14680 whole entry): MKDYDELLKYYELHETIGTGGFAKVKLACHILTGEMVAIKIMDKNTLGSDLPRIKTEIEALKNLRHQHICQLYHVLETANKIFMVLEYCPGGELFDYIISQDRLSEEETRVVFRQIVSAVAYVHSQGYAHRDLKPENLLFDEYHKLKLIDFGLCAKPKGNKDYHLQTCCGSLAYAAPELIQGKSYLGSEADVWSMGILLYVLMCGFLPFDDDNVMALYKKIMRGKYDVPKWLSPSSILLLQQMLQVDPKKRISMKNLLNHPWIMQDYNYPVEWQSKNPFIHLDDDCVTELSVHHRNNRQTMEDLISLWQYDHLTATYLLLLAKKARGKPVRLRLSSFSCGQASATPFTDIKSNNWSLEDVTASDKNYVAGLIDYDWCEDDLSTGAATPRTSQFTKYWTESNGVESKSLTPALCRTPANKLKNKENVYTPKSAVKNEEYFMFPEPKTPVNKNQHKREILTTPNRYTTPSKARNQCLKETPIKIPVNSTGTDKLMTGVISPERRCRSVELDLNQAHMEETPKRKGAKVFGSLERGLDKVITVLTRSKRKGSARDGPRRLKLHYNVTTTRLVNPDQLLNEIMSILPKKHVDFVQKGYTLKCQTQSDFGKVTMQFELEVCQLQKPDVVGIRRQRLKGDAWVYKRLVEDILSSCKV

Q: Cn1cncc1C(OCc1c(-c2ccc(OC(F)(F)F)cc2)cc(C#N)c(=O)n1C)c1ccc(C#N)cc1 (configuration not stated) was tested. Which Ki [1] did it give?
A: Its Ki is > 2.51 µM (inactive).

Q: And the Ki [2]?
A: The Ki was > 1.58 µM (inactive).

Q: What about the Ki [3] of the same compound?
A: The Ki was > 7.94 µM (inactive).

Q: And the Ki [4]?
A: Its Ki is > 7.94 µM (inactive).

Q: And the Ki [5]?
A: Its Ki is > 3.98 µM (inactive).

Q: And the Ki [6]?
A: The Ki was > 10 µM (inactive).

Q: What about the Ki [7] of the same compound?
A: The Ki was > 5.01 µM (inactive).

Q: What about the Ki [8] of the same compound?
A: The Ki was > 7.94 µM (inactive).

Q: What about the Ki [9] of the same compound?
A: The Ki was > 7.94 µM (inactive).

Q: What about the Ki [10] of the same compound?
A: The Ki was > 1.58 µM (inactive).

Q: What about the Ki [11] of the same compound?
A: The Ki was > 2 µM (inactive).

Q: What about the Ki [12] of the same compound?
A: Its Ki is > 6.31 µM (inactive).

Q: What about the Ki [13] of the same compound?
A: Its Ki is > 7.94 µM (inactive).

Q: What about the Ki [14] of the same compound?
A: Its Ki is > 6.31 µM (inactive).

Q: And the Ki [15]?
A: Its Ki is > 5.01 µM (inactive).

Q: What about the Ki [16] of the same compound?
A: The Ki was > 7.94 µM (inactive).

Q: And the Ki [17]?
A: The Ki was > 7.94 µM (inactive).

Q: What about the Ki [18] of the same compound?
A: The Ki was > 7.94 µM (inactive).

Q: And the Ki [19]?
A: The Ki was > 7.94 µM (inactive).

Q: And the Ki [20]?
A: Its Ki is > 1.58 µM (inactive).

Q: What about the Ki [21] of the same compound?
A: The Ki was > 7.94 µM (inactive).

Q: How did the EC50 (Protein RecA) turn out when CCc1ccc(S(=O)(=O)/N=C2\C=C(NS(=O)(=O)c3ccccc3)C(=O)c3ccccc32)cc1 was run?
A: The EC50 was 3.08 µM (active).

Reference: ChEMBL document CHEMBL1201862, “PubChem BioAssay data set” (2004)
